Series [1] has as its target CXCR4 and B2AR heteromers (Homo sapiens, UniProt P61073). Particulars: MDA-MB-231 cells.
Series [2] deals with C57BL/6J or Balb/c mice. To be noted: 5 mg/kg SC, literature; cited from earlier work.
Series [3] has as its system C57BL/6J or Balb/c mice. The experiment in a line: In vivo mobilization, CBC analysis of WBC (Example 11). Particulars: for fold increase in WBCs compared to the vehicle: PB 2 h after GPC-100 30 mg/kg IV, 1 h after AMD3100 5 mg/kg SC, 12 h after G-CSF 0.1 mg/kg SC BID x5, propranolol 20 mg/kg IP QD x7.
The next series relates to C57/B16 mice. The experiment in a line: Complete blood count, beta blockers +/- GPC100, single agents and combinations (Examples 6-7). To be noted: for effect of 7-day beta blocker on GPC100-induced mobilization: GPC100 30 mg/kg IV on day 7.
The test system of series [4] is LSK cells (Lineage−Sca−1+c−Kit+). The experiment in a line: Flow cytometry of LSK cells in peripheral blood. To be noted: mouse, in vivo. (In general: Flow cytometry measures light scatter and fluorescence of single cells or particles in a stream.)
The next series concerns C57/BL6 mice. The experiment in a line: Complete blood count in peripheral blood, Example 1 mobilization studies. To be noted: 7-day treatment alone, 20 mg/kg IP.

CXCR4 and B2AR heteromers, sequence (P61073 whole entry, one chain of several): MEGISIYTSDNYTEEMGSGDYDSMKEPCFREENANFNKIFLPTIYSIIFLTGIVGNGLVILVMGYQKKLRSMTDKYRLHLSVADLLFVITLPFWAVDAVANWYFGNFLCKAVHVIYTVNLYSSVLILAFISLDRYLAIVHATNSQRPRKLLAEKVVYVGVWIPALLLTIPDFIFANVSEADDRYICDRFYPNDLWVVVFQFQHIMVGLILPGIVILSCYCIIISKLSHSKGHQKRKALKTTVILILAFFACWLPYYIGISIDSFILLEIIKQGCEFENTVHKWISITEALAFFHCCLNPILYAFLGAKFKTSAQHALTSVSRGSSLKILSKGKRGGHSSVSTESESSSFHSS

As for `c1cc(CN2CCCNCCNCCCNCC2)ccc1CN1CCCNCCNCCCNCC1` [AMD3100, Plerixafor], the “Inhibition of Ca2+ flux enhanced by co-treatment with Pro (in words)” value in series [1] is “not”. Besides, in the series on C57BL/6J or Balb/c mice [2], the “time of peak mobilization” value was 1 h. Further, the “changes in platelet count, hemoglobin or other red blood cell parameters” value in the series on C57BL/6J or Balb/c mice [3] (single administration) was “No changes”.

As to `Cc1ccc(OCC(O)C(C)NC(C)C)c2c1CCC2` (centres unmarked) [ICI-118,551], the “effect on total blood cell counts when administered alone” value in the series on C57/B16 mice (seven-day IP, propranolol 20 mg/kg, nadolol 5 mg/kg, ICI-118,551 5 mg/kg) is given as “did not affect”.

Turning to `CC(C)NCC(O)COc1cccc2ccccc12` (centres unmarked) [Propranolol], the “effect of propranolol on LSK cell mobilization by GPC-100” value in series [4] was “enhanced”. Besides, the “effect of propranolol pretreatment on GPC-100 induced mobilization” value in the series with C57BL/6J or Balb/c mice [3] (20 mg/kg IP over 7 days) is listed as “significantly improved”. Further, the “fold increase in WBCs compared to the vehicle” value in the series on C57BL/6J or Balb/c mice [3] amounted to 4.1 fold. Further, in the series with C57/BL6 mice, the Hemoglobin was 13.15 ± 0.8 g/dL, the Lymphocytes was 4.7 ± 1.3 10^3/uL, the Monocytes was 0.2 ± 0.09 10^3/uL and the Neutrophils was 0.42 ± 0.3 10^3/uL. In the series on C57/BL6 mice, the Platelets was 266 ± 52 10^3/uL and the RBC is recorded as 9.8 ± 0.36 10^6/uL. In addition, the WBC with C57/BL6 mice (vehicle IV on day 7) is recorded as 5.4 ± 1.7 10^3/uL. Moreover, the “effect of 7-day beta blocker on GPC100-induced mobilization” value in the series with C57/B16 mice is recorded as “enhanced”. In addition, the “effect on AMD3100-induced mobilization of lymphocytes” value in the series with C57/B16 mice (propranolol 20 mg/kg IP D1-D7, AMD3100 5 mg/kg SC D7) is “slightly increase”.

Regarding `CC(C)(C)NCC(O)COc1cccc2c1CC(O)C(O)C2` (centres unmarked) [Nadolol], the “effect of 7-day beta blocker on GPC100-induced mobilization” value in the series on C57/B16 mice is “enhanced”.

B1: G-CSF: Recombinant murine G-CSF, granulocyte-colony stimulating factor (protein, UniProt P09920 31-208, looked up)
Granulocyte …: VPLVTVSALPPSLPLPRSFLLKSLEQVRKIQASGSVLLEQLCATYKLCHPEELVLLGHSLGIPKASLSGCSSQALQQTQCLSQLHSGLCLYQGLLQALSGISPALAPTLDLLQLDVANFATTIWQQMENLGVAPTVQPTQSAMPAFTSAFQRRAGGVLAISYLQGFLETARLALHHLA
Consider B1, for which the “fold increase in WBCs compared to the vehicle” value in the series on C57BL/6J or Balb/c mice [3] stood at 4.5 fold. For the same molecule, in the series with C57/B16 mice (single agent), the “WBC mobilization, single agent comparison” value was “Maximum mobilization” and the “neutrophil mobilization, single agent comparison” value was “more neutrophils than GPC100 or AMD3100”.

These data come from patent US20250360149A1, “GPCR INHIBITORS AND USES THEREOF” (GPCR Therapeutics, Inc., priority 2022, published 2025).
